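How tested: cells in 96-well plates exposed to compound for 48 hours at five concentrations. At the GI50, growth is halved.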 Calls of active or inactive are those of the source. No stated cut-off is given here; in the data, active = GI50 up to about 1.1 µM and inactive = higher.

Among the test systems are SNB-75; T47D; UO-31; KM12; K562; MCF7; HOP-92; NCI/ADR-RES; MDA-N; DU-145; HCT-15; MOLT-4; SK-MEL-28; MDA-MB-435; A498; SNB-19; RXF 393; NCI-H522; IGROV-1; SF-539.
What all share (experiment): growth of human tumour cells (NCI), 48 h

For `CN(C(=O)C1=CCC2(CC1)OCCO2)c1ccccc1OS(=O)(=O)C(F)(F)F`, the GI50 is 15.5 µM (inactive) with SNB-75; > 100 µM (inactive) in the test with T47D; > 100 µM (inactive) with UO-31; 25.3 µM (inactive) with KM12; > 100 µM (inactive) in the test with K562; > 100 µM (inactive) with MCF7. The GI50 is > 100 µM (inactive) in the test on HOP-92; 53.3 µM (inactive) in the test with NCI/ADR-RES; > 100 µM (inactive) in the test with MDA-N; > 100 µM (inactive) in the test on DU-145; 59 µM with HCT-15; > 100 µM (inactive) in the test on MOLT-4. The GI50 in the test on SK-MEL-28, in the test with MDA-MB-435, in the test with A498, in the test on SNB-19 and in the test with RXF 393 was > 100 µM (inactive) in each case.

`O=C1CCc2cc([N+](=O)[O-])ccc2O1`: the GI50 in the test on NCI-H522, in the test on SNB-75, in the test on IGROV-1, in the test with T47D, in the test with K562 and in the test with MCF7 was > 100 µM (inactive) in each case. Moreover, the GI50 in the test on HOP-92 was > 100 µM (inactive); with NCI/ADR-RES, > 100 µM (inactive); with MDA-N, > 100 µM (inactive); in the test with DU-145 it was > 100 µM (inactive); with HCT-15 it was greater than 100 µM; in the test on SF-539, > 100 µM (inactive). Moreover, the GI50 in the test with MOLT-4, in the test with SK-MEL-28, in the test with MDA-MB-435, in the test with A498, with SNB-19 and in the test on RXF 393 was > 100 µM (inactive) in each case.

Take `O=Cc1c(-c2ccccc2)nc2ccccc2c1O`: the GI50 in the test on NCI-H522 was 50.8 µM (inactive); with SNB-75, 34.5 µM (inactive); in the test on IGROV-1, 53.8 µM (inactive); in the test on T47D, 64.6 µM (inactive); in the test with UO-31, 85.7 µM (inactive); in the test on KM12, 30.3 µM (inactive). Moreover, the GI50 in the test on MCF7 was 39.3 µM (inactive); in the test on HOP-92, > 100 µM (inactive); in the test on NCI/ADR-RES, 52.1 µM (inactive); in the test on MDA-N, 15.6 µM (inactive); in the test with DU-145 it was > 100 µM (inactive); in the test on HCT-15, 65.2 µM. Further, the GI50 in the test with SF-539 was 45.6 µM (inactive); in the test with MOLT-4, 55.7 µM (inactive); in the test with SK-MEL-28, > 100 µM (inactive); in the test with MDA-MB-435, 21.3 µM (inactive); in the test on A498, 81.8 µM (inactive); in the test with SNB-19 it was > 100 µM (inactive).

With `C=C([C@@]1(O)C[C@H]2[C@H](CCC2(OC)OC)[C@@H]2c3ccccc3O[C@@H]21)[Si](C)(C)C`, the GI50 is 89.7 µM (inactive) in the test on NCI-H522; > 100 µM (inactive) with SNB-75; > 100 µM (inactive) with IGROV-1; 69.8 µM (inactive) in the test with T47D; 76.7 µM (inactive) in the test with UO-31; > 100 µM (inactive) in the test with KM12. Further, the GI50 in the test on K562 was 59.3 µM (inactive); with MCF7, 93.1 µM (inactive); with HOP-92 it was 1.78 µM (inactive); with NCI/ADR-RES, > 100 µM (inactive); in the test on MDA-N, > 100 µM (inactive); with DU-145, > 100 µM (inactive). Moreover, the GI50 in the test on HCT-15 was greater than 100 µM; in the test with SF-539 it was > 100 µM (inactive); in the test with MOLT-4, > 100 µM (inactive); in the test on SK-MEL-28, > 100 µM (inactive); with MDA-MB-435, > 100 µM (inactive); with A498, > 100 µM (inactive). Moreover, the GI50 in the test with SNB-19 was > 100 µM (inactive).

Consider `CN[C@H]1CC[C@]23C[C@]24CC[C@]2(C)[C@@H]([C@H](C)N(C)C)CC[C@@]2(C)[C@@H]4CC[C@H]3C1(C)C`, for which the GI50 in the test on NCI-H522 was 17.2 µM (inactive); with SNB-75 it was 14.4 µM (inactive); in the test on IGROV-1 it was 16.8 µM (inactive); in the test on T47D it was 14.6 µM (inactive); in the test on UO-31, 11.9 µM (inactive); in the test on KM12 it was 15 µM (inactive). In addition, the GI50 in the test with MCF7 is 15.6 µM (inactive); in the test with HOP-92 it was 10.9 µM (inactive); in the test on NCI/ADR-RES, 18.5 µM (inactive); in the test with MDA-N it was 13.9 µM (inactive); with DU-145, 14.4 µM (inactive); in the test with HCT-15, 10.7 µM. Besides, the GI50 in the test on SF-539 was 11.2 µM (inactive); in the test on MOLT-4, 16.5 µM (inactive); in the test with SK-MEL-28 it was 12.4 µM (inactive); in the test on MDA-MB-435, 14.1 µM (inactive); in the test with A498 it was 20.6 µM (inactive); with SNB-19, 16.7 µM (inactive).

As to `O=C(Cc1nc2ncccc2[nH]c1=O)c1c[nH]c2ccccc12`, the GI50 with NCI-H522 was 16.6 µM (inactive); with IGROV-1, 17.3 µM (inactive); with T47D it was 17.6 µM (inactive); in the test on UO-31 it was 17.7 µM (inactive); in the test with KM12 it was 17.5 µM (inactive); with K562, 21.4 µM (inactive). For the same compound, the GI50 with MCF7 was 16.9 µM (inactive); in the test on HOP-92, 17.7 µM (inactive); with NCI/ADR-RES it was 29.4 µM (inactive); in the test on MDA-N, 19.7 µM (inactive); with DU-145, 17.5 µM (inactive); in the test on HCT-15, 31.6 µM. Further, the GI50 in the test on SF-539 is 16.6 µM (inactive); in the test with MOLT-4, 26.4 µM (inactive); in the test with SK-MEL-28, 15.1 µM (inactive); with MDA-MB-435, 15.9 µM (inactive); with A498, 17.7 µM (inactive); in the test with SNB-19, 18.3 µM (inactive). In the test on RXF 393, the GI50 was 22 µM (inactive).

Consider `NC1(CCNC(=O)c2ccccc2)CCN(C(=O)c2ccccc2)CC1`, for which the GI50 in the test with NCI-H522 was 3.67 µM (inactive); with SNB-75, 0.548 µM (active); in the test with IGROV-1 it was > 100 µM (inactive); in the test on T47D it was > 100 µM (inactive); in the test on UO-31 it was > 100 µM (inactive); with KM12, > 100 µM (inactive). Also, the GI50 was > 100 µM (inactive) with K562; > 100 µM (inactive) with MCF7; 50.7 µM (inactive) in the test with HOP-92; > 100 µM (inactive) in the test on NCI/ADR-RES; > 100 µM (inactive) in the test on MDA-N; > 100 µM (inactive) in the test on DU-145. Also, the GI50 in the test with HCT-15 is greater than 100 µM; in the test with SF-539, > 100 µM (inactive); with MOLT-4 it was > 100 µM (inactive); with MDA-MB-435, > 100 µM (inactive); in the test with SNB-19, > 100 µM (inactive); in the test with RXF 393, > 100 µM (inactive).

As for `O=c1c(Br)c(-c2ccccc2)[s+]([O-])c2ccccc12` (stereo not drawn), the GI50 with NCI-H522 was 1.68 µM (inactive); in the test on SNB-75 it was 16.2 µM (inactive); with IGROV-1 it was 10.1 µM (inactive); in the test with T47D, 2.8 µM (inactive); in the test with UO-31 it was 12 µM (inactive); with KM12, 15.8 µM (inactive). For the same compound, the GI50 with K562 is 2.74 µM (inactive); with MCF7, 2.96 µM (inactive); in the test with HOP-92, 10.5 µM (inactive); in the test with NCI/ADR-RES, 16.7 µM (inactive); in the test with MDA-N it was 6 µM (inactive); with DU-145 it was 14.2 µM (inactive). In addition, the GI50 in the test on HCT-15 is 3.32 µM; with SF-539, 3.01 µM (inactive); in the test on MOLT-4, 1.22 µM (inactive); in the test with SK-MEL-28, 13 µM (inactive); with MDA-MB-435, 4.5 µM (inactive); with SNB-19 it was 18.2 µM (inactive). For the same compound, the GI50 in the test on RXF 393 was 12.2 µM (inactive).

For the compound `O=[N+]([O-])c1ccc(C2ON=C(c3ccccc3)N2C23CC4CC(CC(C4)C2)C3)cc1` (stereo not drawn), the GI50 in the test on NCI-H522 is > 10 µM (inactive); in the test with SNB-75 it was 5.6 µM (inactive); with IGROV-1 it was > 10 µM (inactive); in the test with T47D, > 10 µM (inactive); with KM12 it was > 10 µM (inactive); in the test on K562 it was > 10 µM (inactive). Moreover, the GI50 was > 10 µM (inactive) in the test on MCF7; > 10 µM (inactive) with HOP-92; > 10 µM (inactive) in the test on NCI/ADR-RES; > 10 µM (inactive) in the test with MDA-N; > 10 µM (inactive) in the test on DU-145; greater than 10 µM in the test with HCT-15. The GI50 is 2.89 µM (inactive) in the test on SF-539; > 10 µM (inactive) in the test with MOLT-4; > 10 µM (inactive) with SK-MEL-28; > 10 µM (inactive) in the test with MDA-MB-435; > 10 µM (inactive) in the test with A498; > 10 µM (inactive) in the test with SNB-19. For the same compound, in the test on RXF 393, the GI50 was > 10 µM (inactive).

`COC(=O)[C@]1(CCC(C)=O)C(=O)C=CN([C@H](C)c2ccccc2)[C@@H]1Cc1ccc(OC)c(OCc2ccccc2)c1I`: the GI50 with NCI-H522 was 20 µM (inactive); in the test with IGROV-1, 12.6 µM (inactive); with T47D, 13.5 µM (inactive); in the test on UO-31 it was 15.2 µM (inactive); in the test with KM12, 19.2 µM (inactive); in the test with K562 it was 17.8 µM (inactive). Also, the GI50 is 19.2 µM (inactive) in the test with MCF7; 6.08 µM (inactive) with HOP-92; 29.2 µM (inactive) with NCI/ADR-RES; 18.7 µM (inactive) with MDA-N; 16.7 µM (inactive) in the test on DU-145; 18.9 µM in the test with HCT-15. The GI50 in the test with SF-539 is 16.6 µM (inactive); in the test on MOLT-4 it was 12.4 µM (inactive); in the test on SK-MEL-28, 35.2 µM (inactive); in the test on MDA-MB-435, 18.1 µM (inactive); with A498 it was 22.5 µM (inactive); in the test on SNB-19, 22.5 µM (inactive). The GI50 in the test on RXF 393 was 11.4 µM (inactive).

With `Cc1ccc2cc3c(ccc4ccccc43)c3c2c1CC3` [3-METHYLCHOLANTHRENE], the GI50 with NCI-H522, with SNB-75, in the test with IGROV-1, in the test on T47D, with UO-31 and in the test with KM12 was > 100 µM (inactive) in each case. For the same compound, the GI50 in the test on K562 is > 100 µM (inactive); in the test on MCF7, 0.159 µM (active); in the test with HOP-92 it was > 100 µM (inactive); in the test with NCI/ADR-RES, > 100 µM (inactive); with MDA-N it was > 100 µM (inactive); with DU-145, > 100 µM (inactive). In addition, the GI50 in the test with HCT-15 is 9.82 µM; with SF-539, > 100 µM (inactive); with MOLT-4, > 100 µM (inactive); in the test with SK-MEL-28, > 100 µM (inactive); in the test on MDA-MB-435 it was > 100 µM (inactive); with SNB-19 it was > 100 µM (inactive). The GI50 in the test with RXF 393 was > 100 µM (inactive).

(Values after ChEMBL document CHEMBL1201862, “PubChem BioAssay data set” (2004).)
